Assay results as given in patent US12661503B2, “Microcurrent-based skin treatment and pretreatment techniques” (NSE Products, Inc., priority 2022, dated 2026).
Entries after “also recorded” stand apart in the source; their conditions may differ. Read-outs that look alike come from different tables or passages of the source. Blank lines part the entries; values can stand above or below the compound they belong to.

Key:
[1] = Franz cell tracking marker flux after electrical waveform pretreatment; type: in vitro ADME, human or mammalian
Excerpt: (§1) FIG. 7A is a schematic diagram of a Franz cell (or cell system) 700 adapted for testing permeability of a skin sample 710.
FIG. 11A is a bar chart illustrating transdermal allantoin penetration, following selected current treatments. FIG. 11B is a bar chart illustrating allantoin retention in the epidermis and dermis, following the selected treatments. FIG. 11C is a bar chart illustrating allantoin flux, following the selected treatments. The Flus is in arbitrary units, for example μg/cm^2/hr, or other suitable, appropriate or convenient measure, as known in the art.
(§2) The number of Franz cell replicates (Franz cells) per sample was n=3 for non-electrical pretreated samples, and n=6 for pulsed electrical pretreatment samples. The number of Franz cell replicates may also vary. The current flow (I) is given in microamperes (μA), and the pulse time (PT) in minutes (mi) where zeros indicate no electrical current, and no pulse time. In each case, the next include the sample being drawn off (draw off), and post pulse treatment/dosing with phosphate buffered saline (PBS) containing 1.0% allantoin. Assessment times were at post 0.5, 1.0, 6 and 24 hours (hr), assaying for allantoin.

[2] = Franz cell transdermal penetration (receptor fluid) after electrical waveform pretreatment; type: in vitro ADME, human or mammalian; conditions: for transdermal penetration of allantoin, six minute vs three minute pretreatment: CSW at 375, 250 and 125 μA (all current levels)
Excerpt: as §1
An electrical voltage can be applied to or across the sample 720 via an electrode 740 in contact with the skin sample 730, and a conducting lead 750 disposed in a sampling port 760. Suitable materials for electrode 740 and lead 750 include platinum, silver, copper, and other conducting metals, in porous mesh, wafer, plate, or wire form. A heater 770 can be provided to maintain temperature of the Franz cell 710, sample 720 and donor compound 730, during operation of the system 700.
FIG. 7B is a schematic diagram of a Franz cell system 700 adapted for application of a microcurrent treatment to the skin sample 710. In this example, a galvanic unit or waveform generator 780 can be provided to apply a microcurrent waveform to the skin sample 720; e.g., via a negative polarity platinum wire 755 connected to a porous mesh or wafer electrode 740 on the skin surface, with opposite polarity (+) defined by a platinum lead wire or wire electrode 755. Different metals such as copper or silver can also be used, or other suitable conductors. The polarity can also be reversed, or the lead wire 750 can be used to define a ground potential for the Franz cell 710.
Round one testing was performed for three electrical waveforms with allantoin in PBS (phosphate buffered saline) or the NBS agent. The goal was to compare the three electrical waveforms for their capacity to deliver the one or more components in the NBS v1.18 agent. The delivery was tracked via allantoin measurement, used as a skin penetration tracking marker.
(§3) The study was conducted in two phases or parts. Round 1a (Round 1: Phase 1a) evaluated the penetration of 1.0% allantoin (an active) in PBS with a galvanic electrical waveform (GEWF), charge-balanced, symmetric electrical waveform (CSW), and a Program Random Pulse Width Modulation electrical waveform ([…]), in a Franz cell model. Details of the testing process includes receptor well collection and processing (Table 2A), and the epidermal and dermal retention protocol to assess penetration of the tracking markers (Table 2B).
Samples and treatments included 1.0% allantoin in PBS, with no electrical stimulation. The skin sample was also pretreated with a GEWF (Galvanic Electrical waveform) in PBS for thirty-six minutes (36 m), followed by treatment with a PBS topical or agent containing 1.0% allantoin. Pretreatment was also applied with a charge-balanced, symmetric electrical waveform (CSW) in PBS for 36 m, followed by treatment with a PBS agent containing 1.0% allantoin, or treatment with a Program Random Pulse Width Modulation electrical waveform ([…]) in PBS for 36 m followed by application of a PBS agent with 1.0% allantoin.
(§4) The microcurrent dosage delivered ranged up to 375 microampere (μA) for a twelve minute cycle, repeated for three cycles. Receptor fluid collection was measured at time t=0 (before and immediately after the topical sample treatment), at the end of waveform cycle 1 (t=12 min), at the end of waveform cycle 3 (t=36 m); and at 1 hour (1 h), 6 h and 24 h intervals post-pretreatment with the electrical waveform and treatment with the selected topical agents.
Round 1b (Round 1: Phase 1b) testing included evaluation of the NBS v1.18 agent with the GEWF (galvanic electrical waveform), CSW (charge-balanced, symmetric electrical waveform) and […] (Program Random Pulse Width Modulation electrical waveform), in a Franz cell model as described herein. Samples and treatments included the NBS v1.18 agent containing 0.1% allantoin, with no electrical stimulation. […]

[3] = tested on: upper thigh skin of subjects; assay: Tape stripping assessment for allantoin recovery (LC-MS); type: in vivo; conditions: early tape strips one to five; treated vs untreated upper thigh; week twelve
Experimental: Cellulite was further evaluated by measuring circumference of upper thigh during each visit. At the end of study completion at twelve weeks, twenty tape strips were removed from the treated upper thigh area of five subjects chosen […] and five control strips were obtained from an untreated site on the upper thigh.
In addition, the circumference of each subject's upper thigh was measured during each visit as an indicator for improvement in slimming and firmness (see M. H. Gold, K. A. Khatri, K. Hails, R. A. Weiss and N. Fournier, “Reduction in thigh circumference and improvement in appearance of cellulite,” J. of Cosmetic and Laser Therapy 13, February 2011, which is incorporated by reference herein, in the entirety and for all purposes). At the end of study, the twenty tape strips were collected from the treated upper thigh area, and from an untreated upper thigh area from five randomly chosen subjects. Five tape strips from both treated and untreated areas of upper thigh were evaluated for accumulation of allantoin using LC-MS spectroscopy.
FIGS. 20A and 20B are scatter plots illustrating a tape stripping assessment for allantoin recovery in the upper thigh. The results include representative, anonymous, arbitrarily-labeled samples (S2 and S4), as compared to corresponding controls. […]

[4] = Franz cell epidermal and dermal retention of tracking marker; type: in vitro ADME, human or mammalian
[5] = as above; type: in vitro ADME, human or mammalian; remark: listed apart in the source
Experimental: as §1, §3
as §4, with “Receptor” for “The microcurrent dosage delivered ranged up to 375 microampere (μA) for a twelve minute cycle, repeated for three cycles. Receptor”
Receptor fluid collection was performed at time t=0 (before and immediately after topical sample treatment), at the end of waveform cycle one (12 m), at the end of waveform cycle three (36 m), and at 1 h, 6 h and 24 h intervals post pre-treatment with the electrical waveform, and treatment with the topical agent.
as §2

[6] = Round Three, FIG. 15B, 1.0% allantoin in PBS

- increase in penetration of allantoin upon electrical pre-treatment vs non-electrical pretreated sample with PBS (flux chart) ([1]; FIG. 11C, test #3 vs #4): Greater than fivefold increase
- increase in skin allantoin delivery, electrical pre-treatment with conductive gel vs non-stimulated (flux chart) ([1]; FIG. 11C, test #9 and #11 vs #10): 5
- increase in penetration upon electrical pre-treatment vs non-electrical pretreatment sample with PBS (flux chart) ([1]; Round 2b (caffeine), FIG. 13C, test #1 vs #2): greater than fivefold increase
- allantoin flux, six minute vs three minute electrical pretreatment ([1]; Round Four, FIG. 16C, all current levels, 0.5 h to 24 h after pretreatment): higher allantoin flux
- allantoin flux at initial time point ([1]; Round Three, FIG. 15C, all current levels, 30 m to 1 h following pretreatment): increased allantoin flux
- delivery of allantoin after electrical pre-treatment using conductive gel vs non-electrical pretreatment ([2]; FIG. 11A, test #9 and #11 vs #10, conductive gel containing 1.0% allantoin, Ept-36 min): 5
- increase in transdermal penetration of allantoin ([2]; Round 1a, FIG. 9A, 1.0% allantoin in PBS after 36 min pretreatment with galvanic, CSW or PRPWM waveform, up to 375 μA): fivefold increase
- increase in penetration after electrical pre-treatment using PBS vs non-electrical pretreatment, caffeine as tracking marker ([2]; Round 2b, FIG. 13A, test #1 vs #2, Ept-36 min): greater than fivefold increase
- transdermal penetration of allantoin, six minute vs three minute pretreatment ([2]; Round Four, FIG. 16A, NBS agent with 0.1% allantoin left on): increased transdermal penetration
- transdermal penetration of allantoin, six minute vs three minute pretreatment ([2]; Round Three, FIG. 15A, 1.0% allantoin in PBS): increased transdermal penetration
- increase in penetration of allantoin in both epidermis and dermis vs non-electrically stimulated sample with PBS ([4]; FIG. 11B, test #3 vs #4): Greater than fivefold increase
- skin allantoin delivery in epidermis and dermis, electrically treated conductive gel vs non-stimulated ([4]; FIG. 11B, test #9 and #11 vs #10): 5
- increase in penetration in both epidermis and dermis vs non-electrically stimulated sample with PBS ([4]; Round 2b (caffeine), FIG. 13B, test #1 vs #2): greater than fivefold increase
- epidermal and dermal retention of allantoin, six minute vs three minute pretreatment ([4]; Round Four, FIG. 16B, NBS 0.1% allantoin, about 375 μA): increased epidermal and dermal retention
- allantoin retention, three minute and six minute pretreatments ([4]; Round Four, FIG. 16B, about 125 μA): comparable allantoin retention
- difference in allantoin retention in the dermis ([4]; test #5 vs #6, NBS agent 0.1% allantoin, dermis): not necessarily a substantial difference
- allantoin retention in epidermis and dermis, GEWF vs CSW and PRPWMEWF ([5]; Round 1a, FIG. 9B, 1.0% allantoin in PBS, 24 h): slightly more retention
- epidermal retention at pretreatment current of about 375 μA [5, 6]: increased epidermal retention
- retention in the dermis at lower microcurrent levels (250 μA, 125 μA) [5, 6]: higher retention in the dermis
- skin retention, six minute vs three minute pretreatment ([5]; Round Three, FIG. 15B, all microcurrent levels): higher skin retention
SMILES: NC(=O)NC1NC(=O)NC1=O (stereo not shown) [allantoin]
- allantoin flux at later time point ([1]; Round Three, FIG. 15C, 1-6 h): substantially no flux; also recorded: little or substantially no flux
- allantoin recovered by tape stripping vs background (control) allantoin level [3]: increased over the background skin allantoin level
- allantoin retention in the dermis ([4]; Round Four, FIG. 16B, about 250 μA, six minute pretreatment): stimulate additional allantoin retention in the dermis
- allantoin retention in the epidermis ([4]; Round Four, FIG. 16B, about 250 μA, three minute pretreatment): stimulate allantoin retention in the epidermis

SMILES: Cn1c(=O)c2c(ncn2C)n(C)c1=O [caffeine]
- increase in penetration after electrical pre-treatment using PBS vs non-electrical pretreatment, caffeine as tracking marker [2]: greater than fivefold increase
